Here are results for 2 molecules from patent publication US20240285808A1, “MOLECULAR PROBES FOR IN VIVO DETECTION OF ALDEHYDES” (The General Hospital Corporation, priority 2021, published 2024).

One data set relates to liver of CDAHFD mice. As to the kind of experiment: MR imaging of liver in non-alcoholic steatohepatitis (CDAHFD) model. The data set is classed as in vivo, mouse. The conditions noted are these: 20 min post injection. The text has this: Non-Alcoholic Steatohepatitis Liver Fibrosis Model:
A total of 40 C57BL/6 mice were used and randomized to each study group. To induce NASH, 6-week old, male C57BL/6 mice (Charles River Labs, Wilmington, MA) were fed a choline deficient, high fat diet (CDAHFD) consisting of 60 kcal % fat and 0.1% methionine (A06071302; Research Diets, New Brunswick, NJ) by weight. No animals were excluded from the study.
Three groups of mice were studied:
Group A, mice were fed CDAHFD for 2 (n=6), 6 (n=6), 10 (n=6) weeks and imaged with probe Gd-9.
Group B, mice were fed CDAHFD for 10 weeks followed by normal chow for 1 (n=6) or 4 weeks (n=6) and imaged with probe Gd-9.
Group C, mice were fed normal chow for 2, 6, 10, 11 or 14 weeks (n=10) and imaged with probe Gd-9.
Animals were anesthetized with isoflurane (1-2%) and placed in a specially designed cradle with body temperature maintained at 37° C. The inhaled isoflurane level was adjusted to maintain a respiration rate of 60±5 breaths per minute. The tail vein was cannulated for intravenous (i.v.) delivery of the contrast agent while the animal was positioned in the scanner. Imaging was performed at 4.7 T using a small bore animal scanner with a custom-built volume coil. Mice were imaged with a dose of 100 μmol/kg from 30 mM stock solution of Gd or Mn complex.
Following the imaging session, animals were sacrificed (75 min p.i.) and liver tissue was subjected to histopathologic analysis.
For liver imaging analysis, a region of interest (ROI) was manually traced encompassing the liver parenchyma while avoiding major blood vessels. A second ROI was placed on the dorsal muscle visible in the same image slice to quantify the signal intensity in the muscle for comparison. Seven ROIs were placed in the field of view without any tissue (air) to measure the variation in background signal. More than 20 axial slices per mouse across the entire liver were analyzed in this fashion. […] Contrast to noise ratio (CNR) was calculated by measuring the difference in signal intensity (SI) between liver and muscle and normalizing to the standard deviation of the signal in the air, eq 21. ΔCNR was calculated by subtracting CNR measured prior to probe injection (CNRPre) from CNR measured after injection (CNRPost), eq 22.
Mice were fed with CDAHFD or standard chow for 2, 6, or 10 weeks; two additional groups of mice received CDAHFD for 10 weeks and then standard chow for 1 or 4 weeks (FIG. 70; 2 wk, 6 wk, and 10 wk bars correspond to CDAHFD; 1 wk and 4 wk bars correspond to standard chow; “MRI” indicates MRI with Gd-9).

In the next data set the test system is liver of BDL rats. As to the kind of experiment: LA-ICP-MS gadolinium imaging of rat liver after Gd-9 MRI. Type of data set: in vivo. The conditions noted are these: BDL rat liver harvested 30 min p.i. On the procedure: LA-ICP-MS Gadolinium Imaging Analysis
Sample preparation. Harvested rat livers after MR imaging were immediately snapfrozen in OCT using liquid nitrogen, sectioned into 10-μm-thick slices, stored in −80° C. One slice was assessed by LA-ICP-MS directly. One adjacent slide was incubated with 0.1 mM Gd-9 at 37° C. for 2 h, followed with 0.2 mM NaBH3CN for 2 h and washed with PBS (3×10 min). Another adjacent slide was incubated with 0.1 mM Gd-9 and 10 mM hydrazine at 37° C. for 2 h, followed with 0.2 mM NaBH3CN for 2 hand washed with PBS (3×10 min). Similar procedures were carried out for human tissues. Slides were incubated with 0.1 mM Gd-9 at 37° C. for 2h, followed with 0.2 mM NaBH3CN for 2 h and washed with PBS (3×10 min).
Gadolinium mapping. Elemental images were collected from sections of liver tissue via laser ablation inductively coupled plasma mass spectrometry at the Biomedical National Elemental Imaging Resource (BNEIR). The instrumentation used was a New Wave Research 213 nm laser ablation system with a 10 cm^2 sample chamber, interfaced with an Agilent 7900 ICP-MS system. Samples were ablated in no-gas mode, with helium as a carrier gas at a flow rate of 600 L min^−1. […] Elemental imaging data was quantified using metal-doped gelatin standards prepared at BNEIR and National Institute of Standards and Technology (NIST) certified references material 1515 (apple leaves). […]

The next data set has as its system IRI kidney cortex. As to the kind of experiment: MR imaging of kidney ischemia-reperfusion (IRI) model. The data set is classed as in vivo, mouse. To be noted: for Change in longitudinal relaxation time (ΔT1): 4 h post injection, n = 11. On the procedure:
Kidney Ischemia-Reperfusion (IRI) Model:
Male C57BL/6 mice (10-12 weeks old; Charles River Laboratories) were anesthetized with ketamine/xylazine (100/10 mg/kg; IP). Animals were then placed prone while maintaining rectal temperature strictly at 37° C. with a feedback-regulated heating pad. The skin incision was performed on the left lower flank while adhering to strict aseptic procedures. After accessing the retroperitoneal space, the left kidney, and the left renal artery-vein was identified. Ischemia was induced by applying a micro serrefine clip onto the renal artery and vein. Successful ischemia was visually confirmed by a gradual uniform darkening of the kidney. The clamp was removed 26 minutes later, and a rapid change verified successful reperfusion in kidney color from a dark maroon to a healthy dark pink. The skin was closed using surgical staples, and animals were returned to their home cages. Analgesia was provided by buprenorphine (0.1 mg/kg, SC, bid for three days starting 1 hour before IRI surgery).
Animals were imaged 14 days after IRI and were euthanized after imaging. The right and left kidneys were removed, cortex and medulla regions of each kidney were separated for further analysis.
For kidney imaging, a series of three-dimensional inversion-recovery FLASH images were acquired at baseline and 4 hours after Mn-16 administration with inversion recovery times of 7, 307, 557, 707, 857, 1507, 3007, 5007, and 7007 msec. (TR/TE/FA=5 see/72 msec, field of view (FOV) […], dimension 128×128, slice thickness 0.7 mm).
For kidney imaging analysis, longitudinal relaxation time (T1) was obtained by fitting inversion recovery data to a T1 relaxation equation (M0×(1−2 exp(−TI/T1))) and change in T1 (ΔT1) was calculated by subtracting T1 measured prior to probe injection (T1pre) from T1 measured after injection (T1post), eq 23.

SMILES strings stand for the structures. Several values for one entry are separate records, joined by “and”; a condition that tells them apart may be missing. Identical values can stand only once.

Turning to `NN1CCN(C(=O)CCC(C(=O)[O-])N2CCN(CC(=O)[O-])CCN(CC(=O)[O-])CCN(C(CCC(=O)N3CCN(N)CC3)C(=O)[O-])CC2)CC1.[Gd+3]` (stereo not drawn) [Gd-9, cis-1,4-Gd-(CHyd)2], the “ΔCNR of liver (row head ACNR)” value in the data set on liver of CDAHFD mice (2 wk CDAHFD) is 1.3±0.4 and 1.3 ± 0.3; in the data set on liver of CDAHFD mice (6 wk CDAHFD), 2.1 ± 0.4; in the data set on liver of CDAHFD mice (10 wk CDAHFD then 1 wk Withdrawal) it was 0.9±0.3; in the data set with liver of CDAHFD mice (10 wk CDAHFD then 4 wk Withdrawal) it was 0.3±0.2; in the data set with liver of CDAHFD mice (10 wk CDAHFD), 2.5±0.5; with liver of CDAHFD mice (Control (standard chow)) it was 0.1±0.4. Further, the “Gd accumulation in fibrotic septa (LA-ICP-MS)” value in the data set with liver of BDL rats is given as approximately 50 ppm.
On to `NOC(CCC(=O)NCCCN1CCN(CC(=O)[O-])Cc2cccc(n2)CN(CC(=O)[O-])CC1)C(=O)O.[Mn+2]` (centres unmarked) [Mn-16], for which, in the data set on IRI kidney cortex (IRI kidney cortex), the Mn concentration worked out at 90 nmol/g and the “Change in longitudinal relaxation time (ΔT1)” value is -395 ms. In the data set with IRI kidney cortex (contralateral cortex), the Mn concentration is 60 nmol/g and the “Change in longitudinal relaxation time (ΔT1)” value is -230 ms.
